# Earlier results in patent publication EP0353388A2, “Floor treatment product” (DYNA-5, INC., priority 1988, dated 1990).
# Settings: first dissociation constant of the acid
row,first pK value (pK^I),SMILES
1,2.00,O=C(O)CN(CCN(CC(=O)O)CC(=O)O)CC(=O)O [ethylenediaminetetraacetic acid]
2,1.25,O=C(O)C(=O)O [oxalic acid]
